Data taken from patent US20050004126A1 (priority 2001, published 2005).
“And” between values parts separate entries of the source, which are not always exact repeats. Identical values can stand only once. Counter-ions that a name gives are not always drawn. Like-named read-outs stand apart in the source and are kept apart here.

Legend:
[1] = biological target: T1, MMP-1FL (full-length interstitial collagenase) (Homo sapiens, UniProt P03956); assay: Thiopeptolide hydrolysis assay, MMP-1; format: biochemical; settings: read-out: MMP01 IC50
T1 sequence (P03956 100-469): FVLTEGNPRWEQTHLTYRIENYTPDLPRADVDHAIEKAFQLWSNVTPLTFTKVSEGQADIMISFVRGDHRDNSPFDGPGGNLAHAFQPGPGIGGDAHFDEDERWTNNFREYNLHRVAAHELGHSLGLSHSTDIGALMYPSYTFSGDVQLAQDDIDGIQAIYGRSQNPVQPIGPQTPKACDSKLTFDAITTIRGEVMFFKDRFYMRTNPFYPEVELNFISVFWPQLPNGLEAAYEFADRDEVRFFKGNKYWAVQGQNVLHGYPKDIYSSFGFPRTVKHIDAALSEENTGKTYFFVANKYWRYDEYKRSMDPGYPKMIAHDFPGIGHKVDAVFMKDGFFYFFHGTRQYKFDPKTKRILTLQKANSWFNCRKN
Protocol: (§1) They measure the amount by which a test compound reduces the hydrolysis of a thiopeptolide substrate caused by a matrix metalloproteinase enzyme.
Thiopeptolide substrates show virtually no decomposition or hydrolysis in the absence of a matrix metalloproteinase enzyme. A typical thiopeptolide substrate commonly utilized for assays is Ac-Pro-Leu-Gly-thioester-Leu-Leu-Gly-OEt. A 100 μL assay mixture will contain 50 mM of 2-morpholinoethane sulfonic acid monohydrate (MES, pH 6.0) 10 mM CaCl2, 100 μM thiopeptolide substrate, and 1 mM 5,5′-dithio-bis-(2-nitro-benzoic acid) (DTNB). […] The change in absorbance at 405 nm is monitored on a Thermo Max microplate reader (moleucular Devices, Menlo Park, Calif.) at room temperature (22° C.). […] Assays are carried out with and without matrix metalloproteinase inhibitor compounds, and the amount of hydrolysis is compared for a determination of inhibitory activity of the test compounds.

[2] = biological target: MMP-3CD (catalytic domain of stromelysin) (Homo sapiens, UniProt P08254); assay: Thiopeptolide hydrolysis assay, MMP-3; format: biochemical; settings: read-out: MMP03 IC50;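 note: inhibition of thiopeptolide substrate (100 µM) cleavage by the MMP-3 catalytic domain, detected with DTNB at pH 6.0 with CaCl2, hydrolysis compared against runs lacking inhibitor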
Chain of MMP-3CD (catalytic domain of stromelysin) (P08254 100-272 limits assumed): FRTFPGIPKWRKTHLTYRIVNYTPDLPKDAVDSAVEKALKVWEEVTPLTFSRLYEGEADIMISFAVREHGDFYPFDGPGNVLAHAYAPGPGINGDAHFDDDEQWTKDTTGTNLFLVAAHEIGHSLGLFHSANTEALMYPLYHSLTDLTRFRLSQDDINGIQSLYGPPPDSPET
Protocol: as §1
(§2) Thiopeptolide substrates show virtually no decomposition or hydrolysis in the absence of a matrix metalloproteinase enzyme. A typical thiopeptolide substrate commonly utilized for assays is Ac-Pro-Leu-Gly-thioester-Leu-Leu-Gly-OEt. A 100 μL assay mixture will contain 50 mM of 2-morpholinoethane sulfonic acid monohydrate (MES, pH 6.0) 10 mM CaCl2, 100 μM thiopeptolide substrate, and 1 mM 5,5′-dithio-bis-(2-nitro-benzoic acid) (DTNB). […] Assays are carried out with and without matrix metalloproteinase inhibitor compounds, and the amount of hydrolysis is compared for a determination of inhibitory activity of the test compounds.

[3] = biological target: MMP-13CD (catalytic domain of collagenase 3) (Homo sapiens, UniProt P45452); assay: Thiopeptolide hydrolysis assay, MMP-13;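 note: inhibition of enzymatic thiopeptolide substrate cleavage (100 µM) in pH 6.0 MES buffer with CaCl2 and DTNB, comparing hydrolysis with versus without inhibitor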
Protocol: as §1, §2

Row | Structure (SMILES) | IC50 ([1]; Table II) [µM] | IC50 ([2]; Table II) [µM] | IC50 ([3]; MMP13 IC50 (nM), Table II) | IC50 ([1]; Table 1b) [µM] | IC50 ([2]; Table 1b) [µM] | IC50 ([3]; MMP13 IC50 (μM), Table 1b) [µM]
1 | COC(=O)c1ccc(Cn2c(=O)c(C)c3sc(C(=O)NCc4ccc(F)cc4)cn3c2=O)cc1 | – | – | – | > 100 | 17 | 0.018
2 | CC#CCn1c(=O)c(C)c2sc(C(=O)NCc3ccc(F)cc3)cn2c1=O | – | – | – | > 100 | > 30 | 0.315
3 | COc1ccc(CNC(=O)c2cn3c(=O)n(Cc4ccc(Cl)c(Cl)c4)c(=O)cc3s2)cc1 [6-(3,4-Dichloro-benzyl)-5,7-dioxo-6,7-dihydro-5H-thiazolo[3,2-c]pyrimidine-2-carboxylic acid 4-methoxy-benzylamide] | – | – | – | > 100 | > 100 | 0.084
4 | Cc1c(=O)n(Cc2ccc(C(=O)OCCN(C)C)cc2)c(=O)n2cc(C(=O)NCc3ccncc3)sc12 [dihydrochloride] | – | – | – | > 100 | > 100 | 0.235
5 | Cc1c(=O)n(Cc2ccc(C(=O)OCCN(C)C)cc2)c(=O)n2cc(C(=O)NCc3ccc(F)cc3)sc12 | – | – | – | > 100 | > 30 | 0.094
6 | Cc1c(=O)n(Cc2ccccc2)c(=O)n2cc(C(=O)NCc3ccc(F)c(F)c3)sc12 | – | – | – | > 100 | > 30 | 0.029
7 | Cc1c(=O)n(Cc2ccc(Br)cc2)c(=O)n2cc(C(=O)NCc3ccncc3)sc12 [hydrochloride] | – | – | – | > 30 | > 30 | 0.0365
8 | O=C(NCc1cccnc1)c1cccc(C(=O)NCc2ccc3c(c2)OCO3)c1 | > 100 | > 100 | 1.5 µM | – | – | –
9 | CCOc1ccc(C(=O)NCc2ccc3c(c2)OCO3)cc1C(=O)NCc1ccc2c(c1)OCO2 | 51 | 20 | 0.493 µM | – | – | –
10 | Cc1c(=O)n(Cc2ccccc2)c(=O)n2cc(C(=O)NCc3ccc(OC(F)(F)F)cc3)sc12 | – | – | – | > 30 | > 100 | 0.815
11 | COc1cccc(CNC(=O)c2cn3c(=O)n(Cc4ccccc4)c(=O)c(C)c3s2)c1 | – | – | – | > 30 | 22 | 0.006
12 | Cc1c(=O)n(Cc2ccc3cc(F)ccc3n2)c(=O)n2cc(C(=O)NCc3ccc(F)cc3)sc12 | – | – | – | > 30 | 18 | 0.086
13 | COc1ccc(CNC(=O)c2cn3c(=O)n(Cc4ccccc4)c(=O)c(C)c3s2)cc1 | – | – | – | > 30 | 16 | 0.0217
14 | Cc1c(=O)n(Cc2ccc(S(N)(=O)=O)cc2)c(=O)n2cc(C(=O)NCc3ccncc3)sc12 [hydrochloride] | – | – | – | > 30 | > 100 | 0.0463
15 | Cc1c(=O)n(Cc2ccccc2)c(=O)n2cc(C(=O)NCc3ccccc3)sc12 | – | – | – | > 100 | 51 | 0.094
16 | Cc1c(=O)n(Cc2ccccc2)c(=O)n2cc(C(=O)NCc3cccnc3)sc12 | – | – | – | > 100 | > 30 | 0.225
17 | COc1ccc(CNC(=O)c2cn3c(=O)n(Cc4ccccc4)c(=O)c(C)c3s2)cn1 | – | – | – | > 30 | > 10 | 0.0175

Row | Structure (SMILES) | IC50 ([1]; Table II) [µM] | IC50 ([2]; Table II) [µM] | IC50 ([3]; MMP13 IC50 (nM), Table II) | IC50 ([1]; Table 1b) [µM] | IC50 ([2]; Table 1b) [µM] | IC50 ([3]; MMP13 IC50 (μM), Table 1b) [µM]
18 | Cc1c(=O)n(Cc2ccc(F)cc2)c(=O)n2cc(C(=O)NCc3ccncc3)sc12 [hydrochloride] | – | – | – | > 30 | > 30 | 0.0605
19 | Cc1c(=O)n(Cc2ccc(C(=O)O)cc2)c(=O)n2cc(C(=O)NCc3ccc(F)cc3)sc12 | – | – | – | > 100 | 68 | 0.0022
20 | Cc1c(=O)n(Cc2ccc(C(=O)OCCN(C)C)cc2)c(=O)n2cc(C(=O)NCc3ccc(F)cc3)sc12 [hydrochloride] | – | – | – | > 30 | > 100 | 0.071
21 | Cc1ccc(CNC(=O)c2cn3c(=O)n(Cc4ccccc4)c(=O)c(C)c3s2)cc1 | – | – | – | > 30 | 19 | 0.225
22 | O=C(NCc1ccc(Cl)c(Cl)c1)c1cn2c(=O)n(Cc3ccc(Cl)cc3)c(=O)cc2s1 | – | – | – | > 30 | > 100 | 4.3
23 | Cc1c(=O)n(Cc2ccccc2)c(=O)n2cc(C(=O)NCc3ccc(Cl)c(Cl)c3)sc12 | – | – | – | > 30 | 20 | 0.265
24 | O=C(NCc1ccncc1)c1cn2c(=O)n(Cc3ccccc3)c(=O)cc2s1 [hydrochloride] | – | – | – | > 100 | 68 | 0.49
25 | Cc1c(=O)n(Cc2cccc(C#N)c2)c(=O)n2cc(C(=O)NCc3ccncc3)sc12 [hydrochloride] | – | – | – | > 30 | > 30 | 0.173
26 | COC(=O)c1ccc(Cn2c(=O)c(C)c3sc(C(=O)NCc4ccc(F)cc4)cn3c2=O)cc1C | – | – | – | > 100 | 18 | 0.018
27 | COc1ccc(C(=O)NCc2ccc3nsnc3c2)cc1C(=O)NCc1ccc2nsnc2c1 | 30 | 21 | 0.155 µM | – | – | –
28 | COc1ccc(CNC(=O)c2cn3c(=O)n(Cc4ccccc4)c(=O)c(C=O)c3s2)cc1 | – | – | – | > 100 | 11 | 0.0224
29 | O=C(NCc1ccc(F)cc1)c1cccc(C(=O)NCc2ccc(F)cc2)c1 [N,N′-Bis-(4-fluoro-benzyl)-isophthalamide] | > 100 | > 100 | 2.35 µM | – | – | –
30 | O=C(NCc1ccncc1)C1Cn2c(cc(=O)n(Cc3ccccc3)c2=O)S1 (stereo not drawn) | – | – | – | > 100 | > 100 | 0.59
31 | Cc1c(=O)n(Cc2nccs2)c(=O)n2cc(C(=O)NCc3ccc(F)cc3)sc12 [hydrochloride] | – | – | – | > 100 | > 30 | 0.53
32 | CCCOc1ccc(C(=O)NCc2ccc3c(c2)OCO3)cc1C(=O)NCc1ccc2c(c1)OCO2 | > 100 | 27 | 1.45 µM | – | – | –
33 | O=C(NCc1ccc2c(c1)OCO2)c1cccc(C(=O)NCc2ccco2)c1 | > 100 | > 100 | 3.4 µM | – | – | –
34 | Cc1c(=O)n(Cc2ccc3oc(=O)ccc3c2)c(=O)n2cc(C(=O)NCc3ccc(F)cc3)sc12 | – | – | – | > 30 | > 30 | 0.012

The next lines start with results.

Row | IC50 ([1]; Table II) [µM] | IC50 ([2]; Table II) [µM] | IC50 ([3]; MMP13 IC50 (nM), Table II) | Structure (SMILES) | IC50 ([1]; Table 1b) [µM] | IC50 ([2]; Table 1b) [µM] | IC50 ([3]; MMP13 IC50 (μM), Table 1b) [µM]
35 | > 100 | > 100 | 1.15 µM | COc1cccc(COC(=O)c2cccc(C(=O)OCc3cccc(OC)c3)c2)c1 [Isophthalic acid bis-(3-methoxy-benzyl) ester] | – | – | –
36 | > 100 | > 100 | 1 µM and 2.74 µM | COc1ccc(CNC(=O)c2cccc(C(=O)NCc3ccc(OC)cc3)c2)cc1 [N,N′-Bis-(4-methoxy-benzyl)-isophthalamide] | – | – | –
37 | > 100 | > 100 | 1.4 µM | COc1cccc(CNC(=O)c2cccc(C(=O)NCc3ccncc3)c2)c1 | – | – | –
38 | > 100 | 40 | 0.415 µM | COc1ccc(CNC(=O)c2cccc(C(=O)NCc3cccc(OC)c3)c2)cc1 | – | – | –
39 | > 100 | > 100 | 0.28 µM | COc1ccc(CNC(=O)c2ccc(OC)c(C(=O)NCc3ccc(OC)cc3)c2)cc1 | – | – | –
40 | > 100 | > 30 | 7.83 µM | O=C(OCc1cccc(F)c1)c1cccc(C(=O)OCc2cccc(F)c2)c1 [Isophthalic acid bis-(3-fluoro-benzyl) ester] | – | – | –
41 | > 100 | 73 | 1.1 µM | Nc1cc(C(=O)OCc2ccccc2)cc(C(=O)OCc2ccccc2)c1 [5-Amino-isophthalic acid dibenzyl ester] | – | – | –
42 | > 100 | > 100 | 0.255 µM | COc1ccc(C(=O)OCc2ccncc2)cc1C(=O)OCc1ccncc1 [4-Methoxy-isophthalic acid dipyridin-4-ylmethyl ester] | – | – | –
43 | > 100 | > 100 | 7.25 µM | COc1ccc(C(=O)NCc2ccc(C)cc2)cc1C(=O)NCc1ccc(C)cc1 [4-Methoxy-N,N′-bis-(4-methyl-benzyl)-isophthalamide] | – | – | –
44 | > 100 | > 100 | 0.18 µM | COc1cccc(CNC(=O)c2ccc(OC)c(C(=O)NCc3cccc(OC)c3)c2)c1 [4-Methoxy-N,N′-bis-(3-methoxy-benzyl)-isophthalamide] | – | – | –
45 | > 100 | > 100 | 1.35 µM | COc1cccc(CNC(=O)c2cccc(C(=O)NCc3cccc(OC)c3)c2)c1 [N,N′-Bis-(3-methoxy-benzyl)-isophthalamide] | – | – | –
46 | > 100 | > 100 | 0.915 µM | O=C(O)CN(Cc1ccccc1)C(=O)c1cccc(C(=O)NCc2ccc3c(c2)OCO3)c1 | – | – | –
47 | > 100 | > 100 | 0.044 µM | COc1cccc(CNC(=O)c2cccc(C(=O)OCc3ccc(C(=O)O)cc3)c2)c1 | – | – | –
48 | > 100 | > 100 | 1.14 µM | COc1cccc(CNC(=O)c2cccc(C(=O)NCc3ccc([N+](=O)[O-])cc3)c2)c1 | – | – | –
49 | > 100 | > 100 | 0.9 µM | COc1ccc(C(=O)OCc2ccccc2)cc1C(=O)OCc1ccccc1 [4-Methoxy-isophthalic acid dibenzyl ester] | – | – | –
50 | > 100 | > 100 | 0.935 µM | COc1cccc(CNC(=O)c2cccc(C(=O)NCc3cccc(N)c3)c2)c1 | – | – | –
51 | > 100 | 20 | 2.3 µM | O=C(NCc1cccc(Cl)c1)c1cccc(C(=O)NCc2cccc(Cl)c2)c1 [N,N′-Bis-(3-chloro-benzyl)-isophthalamide] | – | – | –
52 | > 100 | > 100 | 0.077 µM | COc1cccc(CNC(=O)c2cccc(C(=O)NCc3ccc(C(=O)O)cc3)c2)c1 | – | – | –
